Assay results taken from US9790215B2 (FLATLEY DISCOVERY LAB, LLC, priority 2013, dated 2017).

Target: T1, human ΔF508-CFTR (Homo sapiens, UniProt P13569, DEL508-508)
T1 construct: expressed in transfected cells
Assay: CFTR-YFP High Throughput Assay (YFP halide flux in FRT cells)
Assay type: cell-based
Conditions: FRT cells expressing human ΔF508-CFTR and YFP; for EC50: forskolin stimulated
Protocol: Assays for Detecting and Measuring the Effect of Compounds on dF508-CFTR Channels CFRT-YFP High Throughput Assay:
The following protocol is designed to selectively screen small molecule compounds for F508del CFTR corrector activities in the HTS YFP flux assay. In this protocol, the cells are incubated with testing compounds for 24 hours, washed with PBS, stimulated with forskolin and a standard potentiator, and read on a 384-well HTS plate reader, such as the Hamamatsu FDDD-6000.
(§1) YFP fluorescence intensity is acquired at high speed before and after iodide buffer is injected to the assay cells. Iodide enters the cells via active CFTR channels in the plasma membrane, and quenches the YFP fluorescence. The rate of fluorescence quenching is proportionally related to the total CFTR activities in the cell membrane. dF508-CFTR corrector accelerates YFP quenching by increasing the number of CFTR molecules in the testing cell plasma membrane.
This method was initially developed for bench top plate readers (Galietta et al., 2001), and was adapted to the HTS format (Sui et al. Assay Drug Dev. Technol. 2010).
Fisher Rat Thyroid (FRT) cells stably expressing both human AF508-CFTR and a halide-sensitive yellow fluorescent protein (YFP—H148Q/1152L 25, 22) (Galietta et al., Am. J. Physiol Cell Physiol 281(5), C1734, 2001) were cultured on plastic surface in Coon's modified Ham's F12 medium supplemented with FBS 10%, L-glutamine 2 mM, penicillin 100 U/mL, and streptomycin 100 μg/mL. G418 (0.75-1.0 mg/mL) and zeocin (3.2 ug/mL) were used for selection of FRT cells expressing ΔF508-CFTR and YFP. For primary screening, FRT cells were plated into 384-well black wall, transparent bottom microtiter plates (Costar; Corning Inc.) at a cell density of 20,000-40,000 per well. Test compound was applied to the cells at varying concentrations ranging from […] in either a 2-fold or 3-fold dilution series. Cells were incubated in a cell culture incubator at 37° C. with 5% CO2 for 24-26 h. Assay plates were washed with DPBS media (Thermo, cat# SH30028.02) to remove unbound cells and compound. Stimulation media (25 μL) containing 20 μM Forskolin & 30 μM P3 [6-(Ethyl-phenyl-sulfonyl)-4-oxo-1,4-dihydro-quinoline-3-carboxylic acid 2-methoxy-benzylamide] in Hams F-12 coon's modified media was added to the plate wells and incubated at room temperature for 60-120 min. 25 μL of HEPES-PBS-I buffer (10 mM HEPES, 1 mM MgCl2, 3 mM KCl, 1 mM CaCl2, 150 mM NaI) was then added and fluorescence quench curves (Excitation 500 nm/Emission 540 nm; exposure 136 ms) were immediately recorded on an FDSS-6000 plate reader (Hamamatsu). Quench rates were derived from least squares fitting of the data as described by Sui et al., (2010).
The following protocol is designed to selectively screen small molecule compounds for F508del CFTR potentiator activities in the HTS YFP flux assay. In this protocol, the cells are incubated at 27 C for 24 hours with homogeneously boosted dF508-CFTR expression in the cell membrane by the low temperature, washed with PBS, stimulated with forskolin, and read on a 384-well HTS plate reader, such as the Hamamatsu FDDD-6000.
as §1, with “dF508del-CFTR potentiators accelerate” for “dF508-CFTR corrector accelerates”, “increasing” for “increasing the number of”, “activities” for “molecules”
Fisher Rat Thyroid (FRT) cells stably expressing both human ΔF508-CFTR and a halide-sensitive yellow fluorescent protein (YFP-H148Q/I152L 25, 22) (Galietta et al., Am. J. Physiol Cell Physiol 281(5), C1734, 2001) were cultured on plastic surface in Coon's modified Ham's F12 medium supplemented with FBS 10%, L-glutamine 2 mM, penicillin 100 U/mL, and streptomycin 100 μg/mL. […]

T1 sequence (P13569 with tags, fused parts or gaps DEL508-508): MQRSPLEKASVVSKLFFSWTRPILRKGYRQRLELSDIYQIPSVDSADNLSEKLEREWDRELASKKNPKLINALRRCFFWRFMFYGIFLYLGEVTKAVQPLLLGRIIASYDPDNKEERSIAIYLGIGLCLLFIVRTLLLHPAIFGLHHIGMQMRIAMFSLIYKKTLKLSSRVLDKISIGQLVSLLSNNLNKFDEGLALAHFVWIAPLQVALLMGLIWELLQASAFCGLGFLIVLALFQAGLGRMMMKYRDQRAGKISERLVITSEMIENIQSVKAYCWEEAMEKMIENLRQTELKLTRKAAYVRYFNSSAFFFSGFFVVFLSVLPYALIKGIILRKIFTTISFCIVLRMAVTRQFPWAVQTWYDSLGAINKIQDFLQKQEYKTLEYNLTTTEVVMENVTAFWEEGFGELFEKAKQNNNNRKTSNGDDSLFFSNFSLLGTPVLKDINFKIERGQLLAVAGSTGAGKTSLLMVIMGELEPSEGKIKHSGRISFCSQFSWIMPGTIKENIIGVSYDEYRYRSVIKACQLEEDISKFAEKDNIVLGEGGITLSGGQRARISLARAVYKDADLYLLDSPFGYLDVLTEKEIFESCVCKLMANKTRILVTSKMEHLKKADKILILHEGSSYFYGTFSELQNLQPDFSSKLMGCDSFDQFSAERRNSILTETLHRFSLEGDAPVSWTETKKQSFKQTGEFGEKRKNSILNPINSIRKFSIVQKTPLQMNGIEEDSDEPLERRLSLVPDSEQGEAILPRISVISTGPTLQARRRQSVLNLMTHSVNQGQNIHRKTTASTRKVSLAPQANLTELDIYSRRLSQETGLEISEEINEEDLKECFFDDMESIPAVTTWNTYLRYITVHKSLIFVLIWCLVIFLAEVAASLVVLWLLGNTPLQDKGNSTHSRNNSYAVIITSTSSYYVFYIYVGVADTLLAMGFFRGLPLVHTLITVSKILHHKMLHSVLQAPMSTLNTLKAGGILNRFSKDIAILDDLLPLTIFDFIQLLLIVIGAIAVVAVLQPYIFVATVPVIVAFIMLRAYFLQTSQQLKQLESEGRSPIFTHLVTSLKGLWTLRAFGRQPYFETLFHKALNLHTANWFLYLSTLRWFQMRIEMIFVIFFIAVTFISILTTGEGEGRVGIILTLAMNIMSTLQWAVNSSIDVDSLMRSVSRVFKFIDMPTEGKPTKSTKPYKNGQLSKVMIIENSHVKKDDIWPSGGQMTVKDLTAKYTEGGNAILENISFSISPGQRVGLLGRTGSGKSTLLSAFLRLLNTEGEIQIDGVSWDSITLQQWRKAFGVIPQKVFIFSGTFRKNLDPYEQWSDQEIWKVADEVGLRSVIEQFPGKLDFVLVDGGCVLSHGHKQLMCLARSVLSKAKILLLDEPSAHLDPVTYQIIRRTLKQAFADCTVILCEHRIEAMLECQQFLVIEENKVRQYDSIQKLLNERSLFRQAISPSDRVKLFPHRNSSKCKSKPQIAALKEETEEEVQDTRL

Row | Compound | % Efficacy (Emax normalized to the positive control) | EC50
1 | 2-(4-(3-aminophenyl)-1-oxophthalazin-2(1H)-yl)-N-ethyl-N-(4-ethylphenyl)acetamide [Example 7] | ++ (a range of 80%-30%) | > 20 µM
2 | 2-(4-(3-cyanophenyl)-1-oxophthalazin-2(1H)-yl)-N-ethyl-N-(4-ethylphenyl)acetamide [Example 16] | ++ (a range of 80%-30%) | < 10 µM
3 | 3-(3-(2-(ethyl(4-ethylphenyl)amino)-2-oxoethyl)-4-oxo-3,4-dihydrophthalazin-1-yl)benzamide [Example 10] | + (a range of 30%-10%) | > 20 µM
4 | 4-(3-(2-((2,2-difluorobenzo[d][1,3]dioxol-5-yl)(ethyl)amino)-2-oxoethyl)-4-oxo-3,4-dihydrophthalazin-1-yl)benzoic acid [Example 19] | +++ (EMAX > 80%) | 10 to 20 µM
5 | 4-(3-(2-(ethyl(4-ethylphenyl)amino)-2-oxoethyl)-4-oxo-3,4-dihydrophthalazin-1-yl)benzamide [Example 11] | ++ (a range of 80%-30%) | 10 to 20 µM
6 | 4-(3-(2-(ethyl(4-ethylphenyl)amino)-2-oxoethyl)-4-oxo-3,4-dihydrophthalazin-1-yl)benzoic acid [Example 13] | ++ (a range of 80%-30%) | 10 to 20 µM
7 | CCc1ccc(N(CC)C(=O)Cn2nc(-c3ccccc3)c3ccccc3c2=O)cc1 [Example 1, N-ethyl-N-(4-ethylphenyl)-2-(1-oxo-4-phenylphthalazin-2(1H)-yl)acetamide] |  | 10 to 20 µM
8 | CCc1ccc(N(CC)C(=O)Cn2nc(-c3ccc(O)cc3)c3ccccc3c2=O)cc1 [Example 2, N-ethyl-N-(4-ethylphenyl)-2-(4-(4-hydroxyphenyl)-1-oxophthalazin-2(1H)-yl)acetamide] |  | < 10 µM
9 | CCc1ccc(N(CC)C(=O)Cn2nc(-c3cccnc3)c3ccccc3c2=O)cc1 [Example 3, N-ethyl-N-(4-ethylphenyl)-2-(1-oxo-4-(pyridin-3-yl)phthalazin-2(1H)-yl)acetamide] |  | > 20 µM
10 | CCc1ccc(N(CC)C(=O)Cn2nc(-c3ccncc3)c3ccccc3c2=O)cc1 [Example 4, N-ethyl-N-(4-ethylphenyl)-2-(1-oxo-4-(pyridin-4-yl)phthalazin-2(1H)-yl)acetamide] |  | > 20 µM
11 | CCc1ccc(N(CC)C(=O)Cn2nc(-c3cccc4ncccc34)c3ccccc3c2=O)cc1 [Example 5, N-ethyl-N-(4-ethylphenyl)-2-(1-oxo-4-(quinolin-5-yl)phthalazin-2(1H)-yl)acetamide] |  | 10 to 20 µM
12 | CCc1ccc(N(CC)C(=O)Cn2nc(-c3cccc4cnccc34)c3ccccc3c2=O)cc1 [Example 6, N-ethyl-N-(4-ethylphenyl)-2-(4-(isoquinolin-5-yl)-1-oxophthalazin-2(1H)-yl)acetamide] |  | < 10 µM
13 | CCN(C(=O)Cn1nc(-c2cccnc2)c2ccccc2c1=O)c1ccc2c(c1)OC(F)(F)O2 [Example 24] |  | > 20 µM
14 | CCc1ccc(N(CC)C(=O)Cn2nc(Cc3cccnc3)c3ccccc3c2=O)cc1 [Example 25, N-ethyl-N-(4-ethylphenyl)-2-(1-oxo-4-(pyridin-3-ylmethyl)phthalazin-2(1H)-yl)acetamide] |  | < 10 µM
15 | CCN(C(=O)Cn1nc(Cc2cccnc2)c2ccccc2c1=O)c1ccc2c(c1)OC(F)(F)O2 [Example 26, N-(2,2-difluorobenzo[d][1,3]dioxol-5-yl)-N-ethyl-2-(1-oxo-4-(pyridin-3-ylmethyl)phthalazin-2(1H)-yl)acetamide] |  | < 10 µM
16 | COc1ccc(N(C)C(=O)Cn2nc(Cc3cccnc3)c3ccccc3c2=O)cc1 [Example 27, N-(4-methoxyphenyl)-N-methyl-2-(1-oxo-4-(pyridin-3-ylmethyl)phthalazin-2(1H)-yl)acetamide] |  | < 10 µM

The next lines start with the values.

Row | % Efficacy (Emax normalized to the positive control) | EC50 | Compound
17 | +++ (EMAX > 80%) | < 10 µM | 2-(4-(3-chlorophenyl)-1-oxophthalazin-2(1H)-yl)-N-(2,2-difluorobenzo[d][1,3]dioxol-5-yl)-N-ethylacetamide [Example 21]
18 | ++ (a range of 80%-30%) | > 20 µM | 2-(4-(3-cyanophenyl)-1-oxophthalazin-2(1H)-yl)-N-(2,2-difluorobenzo[d][1,3]dioxol-5-yl)-N-ethylacetamide [Example 20]
19 | + (a range of 30%-10%) | < 10 µM | 2-(4-(benzo[d][1,3]dioxol-4-yl)-1-oxophthalazin-2(1H)-yl)-N-ethyl-N-(4-ethylphenyl)acetamide [Example 9]
20 | +++ (EMAX > 80%) | 10 to 20 µM | 4-(3-(2-((2,2-difluorobenzo[d][1,3]dioxol-5-yl)(ethyl)amino)-2-oxoethyl)-4-oxo-3,4-dihydro-phthalazin-1-yl)benzamide [Example 18]
21 |  | < 10 µM | CCc1ccc(N(CC)C(=O)Cn2nc(Cc3cccnc3)c3ccc(C)cc3c2=O)cc1 [Example 28, N-ethyl-N-(4-ethylphenyl)-2-(7-methyl-1-oxo-4-(pyridin-3-ylmethyl)phthalazin-2(1H)-yl)acetamide]
22 |  | < 10 µM | CCc1ccc(N(CC)C(=O)Cn2nc(Cc3cccnc3)c3cc(C)ccc3c2=O)cc1 [Example 29, N-ethyl-N-(4-ethylphenyl)-2-(6-methyl-1-oxo-4-(pyridin-3-ylmethyl)phthalazin-2(1H)-yl)acetamide]
23 |  | < 10 µM | CCc1ccc(N(CC)C(=O)Cn2nc(Cc3cccnc3)c3cccc(C)c3c2=O)cc1 [Example 30, N-ethyl-N-(4-ethylphenyl)-2-(8-methyl-1-oxo-4-(pyridin-3-ylmethyl)phthalazin-2(1H)-yl)acetamide]
24 |  | < 10 µM | CCc1ccc(N(CC)C(=O)Cn2nc(Cc3cccnc3)c3c(C)cccc3c2=O)cc1 [Example 31, N-ethyl-N-(4-ethylphenyl)-2-(5-methyl-1-oxo-4-(pyridin-3-ylmethyl)phthalazin-2(1H)-yl)acetamide]
25 |  | < 10 µM | CCc1ccc(N(CC)C(=O)Cn2nc(Cc3cccnc3)c3cc(OC)c(OC)cc3c2=O)cc1 [Example 32, 2-(6,7-dimethoxy-1-oxo-4-(pyridin-3-ylmethyl)phthalazin-2(1H)-yl)-N-ethyl-N-(4-ethylphenyl)acetamide]
26 |  | < 10 µM | CCc1ccc(N(CC)C(=O)Cn2nc(Cc3cccnc3)c3ccc(C(C)(C)C)cc3c2=O)cc1 [Example 33, 2-(7-(tert-butyl)-1-oxo-4-(pyridin-3-ylmethyl)phthalazin-2(1H)-yl)-N-ethyl-N-(4-ethylphenyl)acetamide]
27 |  | < 10 µM | CCc1ccc(N(CC)C(=O)Cn2nc(Cc3cccnc3)c3cc(C(C)(C)C)ccc3c2=O)cc1 [Example 34, 2-(6-(tert-butyl)-1-oxo-4-(pyridin-3-ylmethyl)phthalazin-2(1H)-yl)-N-ethyl-N-(4-ethylphenyl)acetamide]
28 |  | < 10 µM | CCc1ccc(N(CC)C(=O)Cn2nc(Cc3cccnc3)c3ccc(OC)cc3c2=O)cc1 [Example 35, N-ethyl-N-(4-ethylphenyl)-2-(7-methoxy-1-oxo-4-(pyridin-3-ylmethyl)phthalazin-2(1H)-yl)acetamide]
